Measured values published in US20080262071A1 (priority 2004, published 2008).
Like-named read-outs stand apart in the source and are kept apart here.

Tests used:
[1] = Single blind pilot study of pindolol in PMS (COPE diary, CGI); type: in vivo, human
Excerpt: A single blind pilot study to evaluate the safety, efficacy and tolerability of pindolol in PMS was initiated at one study centre. The trial objectives were to: […] […] Twenty subjects were recruited who met the criteria for inclusion in the study. After screening subjects underwent a one month assessment period with prospective diaries (COPE, Calendar of Premenstrual Events). By calculating the subjects COPE scores in the follicular and luteal phases, a diagnosis of late luteal phase dysphoric disorder could be made. All subjects then entered the single-blind placebo treatment period and the subjects' outcome at the end of this cycle acted as their baseline assessment. Subjects were then treated with pindolol for the next three cycles and assessed using the COPE. During this three month period, subjects may have a sequential increase in dose at monthly intervals from 15 to 25 mg/day to optimize response. Provision was made for dose decreases in case of tolerability concerns. Subjects were aware that they would receive three months of active and one month of placebo but were unaware of when the placebo was administered. […] Secondary efficacy measures included; mean change from the end of the placebo period in luteal phase total COPE score; mean change from end of the placebo period in luteal phase physical COPE symptoms; mean change from the end of the luteal phase behavioral symptoms; mean change from end of the placebo period in follicular phase total COPE score; CGI improvement score at each of the three menstrual cycles.

[2] = Blood pressure after single oral dose in healthy male volunteers; type: in vivo, human; details: healthy subjects
Procedure: Ten healthy male volunteers were tested on two separate occasions one week apart. On both occasions their blood pressure was measured at baseline.

[3] = target: T1, 5HT1a receptors (Homo sapiens, UniProt P08908); details: cited from earlier work
T1 construct: host or cells: human subjects, in vivo PET
T1 sequence (P08908 1-422): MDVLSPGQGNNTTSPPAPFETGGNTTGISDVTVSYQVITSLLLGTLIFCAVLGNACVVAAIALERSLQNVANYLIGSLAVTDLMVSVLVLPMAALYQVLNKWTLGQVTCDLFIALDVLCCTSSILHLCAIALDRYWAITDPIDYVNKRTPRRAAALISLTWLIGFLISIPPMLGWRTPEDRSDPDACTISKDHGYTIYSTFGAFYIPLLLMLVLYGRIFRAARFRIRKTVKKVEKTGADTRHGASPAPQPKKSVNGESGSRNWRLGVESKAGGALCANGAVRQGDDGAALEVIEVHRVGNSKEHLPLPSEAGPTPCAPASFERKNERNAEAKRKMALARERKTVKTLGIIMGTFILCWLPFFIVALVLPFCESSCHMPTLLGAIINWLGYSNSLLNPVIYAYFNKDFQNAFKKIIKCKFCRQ

[4] = man, after administration of the racemate; cited from earlier work
[5] = meta-analysis of 14 double-blind trials; cited from earlier work
[6] = PMS subjects; cited from earlier work
[7] = luteal phase administration; cited from earlier work
[8] = Case treatment of a person with premenstrual dysphoric disorder, daily symptom diary; type: in vivo, human; details: month 2, 5 mg three times daily throughout luteal phase
Excerpt: Patient was a person with a long history of premenstrual dysphoric disorder.
Throughout each cycle, a daily diary was used to document symptoms.

[9] = PMS subjects, three cycles of pindolol

## CC(C)NCC(O)COc1cccc2[nH]ccc12 (racemic) [pindolol]
[1]; 15 to 25 mg/day
  tolerability: very well tolerated
  withdrawals for unacceptable reductions in blood pressure: no withdrawals
[1]; [9]
  CGI improvement: improvement in CGI
  behavioral COPE scores: Particularly significant decreases
[1]; all patients treated with active drug, vs end of placebo period
  total COPE score: decrease in the reduction of total COPE score
[1]; patients on doses of 15 mg and above
  total COPE score: Significant decreases
[2]; 10 mg orally
  blood pressure: definite drop in blood pressure
[2]; 10 mg
  diastolic blood pressure: definite drops in diastolic blood pressure
[3]; 2.5 mg
  occupancy of 5HT1a receptors: did not generate any significant occupancy
[3]; 5.0 mg
  occupancy of 5HT1a receptors: 19%
[4]
  differences between (−) and (+) pindolol in AUC, Cmax and t1/2 hrs: minor differences

## CC(=O)[C@H]1CC[C@H]2[C@@H]3CCC4=CC(=O)CC[C@]4(C)[C@H]3CC[C@]12C [Progesterone]
[5]
  difference from placebo treatment in PMS: did not find a clinically significant difference

## CC(C)NCC(O)COc1ccc(CC(N)=O)cc1 (stereo not shown) [atenolol]
[6]
  several other scales: significant improvement was not found

## CNCCC(Oc1ccc(C(F)(F)F)cc1)c1ccccc1 (stereo not shown) [fluoxetine]
[7]
  efficacy in PMDD: some efficacy

## CN[C@H]1CC[C@@H](c2ccc(Cl)c(Cl)c2)c2ccccc21 [sertraline]
[7]
  efficacy in PMDD: some efficacy

## S-(−)-pindolol [(−) pindolol]
[8]
  mood and anxiety (daily diary): helped improve mood and reduce anxiety
